# In article PMC6037852, “Design of Diarylheptanoid Derivatives as Dual Inhibitors Against Class IIa Histone Deacetylase and β-amyloid Aggregation” (Frontiers in Pharmacology, 2018):
# Columns and labels:
# [1] = tested on: HeLa nuclear HDACs; assay: HDAC fluorometric activity assay, HeLa nuclear extract; conditions: read-out: IC50 HeLa Nuclear HDACs; Boc-Lys(Ac)-AMC 10 μM
# Description: (§1) Enzyme, inhibitors and substrate were diluted with HDAC buffer (15 mM Tris-HCl pH 8.1, 0.25 mM EDTA, 250 mM NaCl, 10% v:v glycerol). Briefly, 10 μL diluted HDAC, i.e., HeLa nuclear extract (Enzo), HDAC6 (BPS), HDAC4, HDAC5 (BPS), HDAC7 (BPS) and HDAC9 (BPS), as well as 50 μL of testing compounds at different concentrations were added to each well of a 96-well microtiter plate and pre-incubated at 30°C for 5 min. […] The fluorescence in wells without test compounds (0.1% DMSO, negative control) was set as 100% enzymatic activity and the fluorescence in wells with enzyme eliminated was set as 0% enzymatic activity. The fluorescence ratio of test compounds to negative control was defined as percentage of remaining enzyme activity. The IC50 values were calculated by linear regression of the data. All experiments were performed in triplicate.
# [2] = molecular target: HDAC5 (Homo sapiens, UniProt Q9UQL6); assay: HDAC fluorometric activity assay, HDAC5; conditions: IC50 Class IIa HDAC5, fluorogenic HDAC class IIa substrate 10 μM
# Description: as §1
# [3] = molecular target: HDAC9 (Homo sapiens, UniProt Q9UKV0); assay: HDAC fluorometric activity assay, HDAC9
# Description: as §1
# [4] = molecular target: T1, HDAC6 (Homo sapiens, UniProt Q9UBN7); assay: HDAC fluorometric activity assay, HDAC6
# T1 sequence (Q9UBN7 1-1215): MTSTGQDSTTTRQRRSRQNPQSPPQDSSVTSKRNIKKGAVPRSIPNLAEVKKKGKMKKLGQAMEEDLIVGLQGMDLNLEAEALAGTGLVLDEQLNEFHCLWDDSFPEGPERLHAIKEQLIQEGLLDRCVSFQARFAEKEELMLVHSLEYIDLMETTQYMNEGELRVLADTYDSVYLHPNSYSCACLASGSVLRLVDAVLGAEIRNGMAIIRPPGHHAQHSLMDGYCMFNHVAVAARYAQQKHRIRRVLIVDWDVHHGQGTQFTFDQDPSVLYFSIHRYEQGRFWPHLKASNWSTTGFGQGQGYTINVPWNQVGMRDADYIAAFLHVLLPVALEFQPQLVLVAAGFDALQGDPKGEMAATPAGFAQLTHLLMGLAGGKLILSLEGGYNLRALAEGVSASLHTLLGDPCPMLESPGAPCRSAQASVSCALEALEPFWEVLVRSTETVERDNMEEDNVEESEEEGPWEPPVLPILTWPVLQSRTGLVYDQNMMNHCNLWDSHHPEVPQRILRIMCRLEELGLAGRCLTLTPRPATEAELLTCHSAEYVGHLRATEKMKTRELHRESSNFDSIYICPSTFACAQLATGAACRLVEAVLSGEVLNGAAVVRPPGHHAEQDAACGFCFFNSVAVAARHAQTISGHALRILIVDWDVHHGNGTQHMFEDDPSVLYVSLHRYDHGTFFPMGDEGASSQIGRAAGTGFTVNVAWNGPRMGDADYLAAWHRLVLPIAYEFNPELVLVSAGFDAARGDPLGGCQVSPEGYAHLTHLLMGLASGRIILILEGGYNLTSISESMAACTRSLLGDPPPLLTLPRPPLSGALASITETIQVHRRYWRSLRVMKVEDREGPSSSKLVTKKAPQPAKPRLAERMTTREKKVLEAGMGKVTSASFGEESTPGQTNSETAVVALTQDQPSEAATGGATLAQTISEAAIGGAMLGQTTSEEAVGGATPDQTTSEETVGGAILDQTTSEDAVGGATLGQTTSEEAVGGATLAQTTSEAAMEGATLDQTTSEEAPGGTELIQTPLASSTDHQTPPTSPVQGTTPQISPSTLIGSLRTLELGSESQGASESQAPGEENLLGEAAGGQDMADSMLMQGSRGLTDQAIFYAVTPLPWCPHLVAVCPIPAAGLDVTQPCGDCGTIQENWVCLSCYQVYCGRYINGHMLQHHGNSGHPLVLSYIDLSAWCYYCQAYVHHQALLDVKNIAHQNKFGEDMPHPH
# Description: as §1
# [5] = molecular target: T2, Aβ1-42 (Homo sapiens, UniProt P05067); assay: Inhibition of Aβ1-42 self-aggregation, thioflavin-T (ThT) fluorescence assay; type: biochemical; conditions: 24 h; for IC50: read-out: Beta-Amyloid Aggregation IC50; for inhibition at 10 µM: single concentration of 10 μM, read-out: Beta-Amyloid Aggregation Inhibition (%)
# T2 construct: Aβ1-42 peptides were purchased from Kelowna International Scientific Inc; purchased Kelowna International Scientific Inc
# Description: Inhibition of Aβ1-42 self-aggregation was measured by thioflavin-T (ThT) fluorescence assay ([Hudson et al., 2009]). Aβ1-42 peptides were purchased from Kelowna International Scientific Inc. To avoid Aβ1-42 self-aggregation before the start of the experiment, Aβ1-42 peptides were dissolved in hexafluoroisopropanol (HFIP) to a concentration of 1 mM. The clear solution containing the dissolved peptide was then aliquoted in micro centrifuge tube. The solution was evaporated under vacuum to remove HFIP to give monomeric Aβ1-42. The monomeric Aβ1-42 was dissolved in NaOH(aq) (60 mM) to give a stock solution (1 mM). The Aβ1-42 stock solution was diluted with 50 mM phosphate buffer (containing 0.15 M NaCl, pH 7.4) before use. Fresh ThT stock solution was prepared by dissolving ThT (Sigma, T3516) in phosphate buffer and filtrated through […] Nylon syringe filter. The ThT stock solution and 400 mM ethylenediaminetetraacetic acid (EDTA) were diluted into the phosphate buffer to generate the working solution as background. A mixture of working solution (ThT final concentration: 10 μM), Aβ1-42 stock solution (Aβ1-42 final concentration: 10 μM) and the tested compounds were incubated on BioShake iQ ThermoMixer (37°C, 700 rpm) for 24 h. Fluorescence was measured by Victor 2X microplate spectrophotometer (excitation λ = 440 nm, emission λ = 486 nm), and adapted for 96-well microtiter plates. The fluorescence intensities were recorded and the percent inhibition due to the presence of the inhibitors were calculated by the following formula: (1 - IFi/IFc) × 100% where IFi and IFc were the fluorescence intensities obtained for Aβ1-42 in the presence and in the absence of inhibitors after subtracting the background, respectively. The IC50 values were calculated by the linear regression model of the data. All experiments were performed in triplicate.
# Chain of HDAC5 (Q9UQL6 whole entry): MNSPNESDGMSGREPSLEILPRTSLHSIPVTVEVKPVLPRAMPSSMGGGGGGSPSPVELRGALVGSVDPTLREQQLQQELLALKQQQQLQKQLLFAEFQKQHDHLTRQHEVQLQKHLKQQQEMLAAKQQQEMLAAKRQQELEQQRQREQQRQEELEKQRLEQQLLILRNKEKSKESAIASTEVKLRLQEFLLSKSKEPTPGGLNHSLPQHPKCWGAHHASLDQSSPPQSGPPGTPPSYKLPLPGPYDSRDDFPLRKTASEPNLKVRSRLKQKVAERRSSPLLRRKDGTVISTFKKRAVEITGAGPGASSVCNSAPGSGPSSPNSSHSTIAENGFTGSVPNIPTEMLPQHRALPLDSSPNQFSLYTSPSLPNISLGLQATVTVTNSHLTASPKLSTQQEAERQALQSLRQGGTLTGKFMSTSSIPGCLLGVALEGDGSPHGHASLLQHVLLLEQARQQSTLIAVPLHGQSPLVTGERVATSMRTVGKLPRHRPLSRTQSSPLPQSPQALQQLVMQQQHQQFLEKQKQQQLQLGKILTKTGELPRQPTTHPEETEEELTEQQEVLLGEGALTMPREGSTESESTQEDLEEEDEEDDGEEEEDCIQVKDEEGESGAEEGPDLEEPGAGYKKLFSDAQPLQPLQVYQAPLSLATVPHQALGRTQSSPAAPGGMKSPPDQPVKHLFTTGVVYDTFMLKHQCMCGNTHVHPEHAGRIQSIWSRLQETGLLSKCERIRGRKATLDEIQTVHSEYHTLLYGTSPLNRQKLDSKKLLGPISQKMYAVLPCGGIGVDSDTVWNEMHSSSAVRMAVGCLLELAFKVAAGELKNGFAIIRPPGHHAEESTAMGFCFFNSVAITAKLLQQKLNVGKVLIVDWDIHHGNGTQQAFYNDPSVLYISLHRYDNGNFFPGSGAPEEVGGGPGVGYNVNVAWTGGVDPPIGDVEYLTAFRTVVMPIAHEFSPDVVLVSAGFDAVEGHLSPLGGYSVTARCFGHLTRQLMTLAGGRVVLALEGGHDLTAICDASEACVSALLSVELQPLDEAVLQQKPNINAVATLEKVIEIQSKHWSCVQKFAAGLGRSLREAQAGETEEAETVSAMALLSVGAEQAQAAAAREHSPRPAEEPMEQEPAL
# Chain of HDAC9 (Q9UKV0 whole entry): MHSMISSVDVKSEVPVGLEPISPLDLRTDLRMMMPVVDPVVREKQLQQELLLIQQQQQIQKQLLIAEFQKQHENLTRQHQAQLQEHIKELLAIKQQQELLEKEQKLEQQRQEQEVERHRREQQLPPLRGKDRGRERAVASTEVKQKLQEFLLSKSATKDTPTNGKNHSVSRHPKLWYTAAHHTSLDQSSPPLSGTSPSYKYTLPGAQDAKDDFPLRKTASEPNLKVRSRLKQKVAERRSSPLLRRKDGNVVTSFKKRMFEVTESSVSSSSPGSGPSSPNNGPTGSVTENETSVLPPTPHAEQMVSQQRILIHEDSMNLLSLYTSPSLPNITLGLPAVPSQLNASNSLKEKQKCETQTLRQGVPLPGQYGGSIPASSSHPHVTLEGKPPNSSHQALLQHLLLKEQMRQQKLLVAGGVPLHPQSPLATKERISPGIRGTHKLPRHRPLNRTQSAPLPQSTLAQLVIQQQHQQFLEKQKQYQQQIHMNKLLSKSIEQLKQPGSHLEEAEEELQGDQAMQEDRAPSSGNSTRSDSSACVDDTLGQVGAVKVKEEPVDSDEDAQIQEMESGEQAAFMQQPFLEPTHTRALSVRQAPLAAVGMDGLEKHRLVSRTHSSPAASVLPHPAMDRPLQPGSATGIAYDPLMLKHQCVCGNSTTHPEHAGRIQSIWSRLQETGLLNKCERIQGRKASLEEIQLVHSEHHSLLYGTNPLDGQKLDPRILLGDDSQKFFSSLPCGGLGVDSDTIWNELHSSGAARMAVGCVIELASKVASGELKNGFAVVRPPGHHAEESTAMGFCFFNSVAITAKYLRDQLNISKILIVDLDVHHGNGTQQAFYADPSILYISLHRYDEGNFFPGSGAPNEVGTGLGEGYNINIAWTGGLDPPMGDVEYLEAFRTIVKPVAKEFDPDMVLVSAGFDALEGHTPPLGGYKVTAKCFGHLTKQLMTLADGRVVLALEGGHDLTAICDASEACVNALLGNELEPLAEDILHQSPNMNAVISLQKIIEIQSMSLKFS
# T2 sequence (P05067 672-713 limits assumed): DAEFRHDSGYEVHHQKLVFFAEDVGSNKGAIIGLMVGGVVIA
IC50 [1] [µM],IC50 [2] [µM],IC50 [3] [µM],IC50 [4] [µM],IC50 [5] [µM],inhibition at 10 µM [5] [%],SMILES
> 40,8.2 ± 0.1,33.8 ± 3.8,> 40,8 ± 1.6,71.3 ± 3.8,O=C(CCc1ccccc1)CCc1ccc(O)c(O)c1 [Compound 8c]
> 40,> 40,> 40,> 40,> 10,14 ± 3,O=C(CCCCc1ccccc1)CCc1ccccc1 [Compound 5a]
> 40,13.1 ± 4.4,18.4 ± 0.6,26.2 ± 4.3,2.3 ± 0.2,83.1 ± 1.9,O=C(/C=C/c1ccc(O)c(O)c1)c1ccccc1 [Compound 7a]
> 40,> 40,> 40,> 40,> 10,30.4 ± 1,O=C(CCCCc1ccccc1)CCc1ccc(O)cc1 [Compound 5b]
> 40,4.8 ± 0.4,9.3 ± 0.8,> 40,6 ± 0.9,65.9 ± 0.2,O=C(CCCCc1ccccc1)CCc1cccc(O)c1O [Compound 5e]
> 40,6.2 ± 0.4,14.2 ± 1.6,> 40,8.6 ± 1.1,66.4 ± 1,O=C(CCc1ccc(O)c(O)c1)c1ccccc1 [Compound 8a]
> 40,> 40,> 40,> 40,> 10,23.1 ± 6.4,COc1cc(/C=C/C(=O)CCCCc2ccccc2)ccc1O [Compound 4k]
> 40,> 40,> 40,> 40,> 10,17.8 ± 2.8,O=C(CCCCc1ccccc1)CCc1ccc(O)c(Cl)c1 [Compound 5g]
> 40,> 40,> 40,> 40,> 10,0.7 ± 1.5,O=C(/C=C/c1cccc(O)c1)CCCCc1ccccc1 [Compound 4d]
> 40,9 ± 0.2,37.1 ± 0.9,> 40,8.1 ± 1.2,68.6 ± 4.1,O=C(CCc1ccc(O)c(O)c1)Cc1ccccc1 [Compound 8b]
> 40,14.6 ± 0.2,18.1 ± 0.4,29.4 ± 1.5,3.4 ± 0.6,91.7 ± 2.5,O=C(/C=C/c1cccc(O)c1O)CCCCc1ccccc1 [Compound 4e]
> 40,> 40,> 40,> 40,> 10,34.9 ± 9.2,O=C(/C=C/c1ccc(O)c(F)c1)CCCCc1ccccc1 [Compound 4f]
> 40,3.8 ± 0.1,5.3 ± 0.3,> 40,5.8 ± 0.2,67.8 ± 3.4,O=C(CCCCc1ccccc1)CCc1ccc(O)c(O)c1 [Compound 5c]
> 40,7.5 ± 0.3,17.3 ± 3.2,> 40,8.5 ± 0.2,59 ± 5.8,O=C(CCCc1ccccc1)CCc1ccc(O)c(O)c1 [Compound 8d]
> 40,15.6 ± 0.4,36.8 ± 0.7,34.5 ± 2.2,3.4 ± 0.4,83.7 ± 0.8,O=C(/C=C/c1ccc(O)c(O)c1)CCc1ccccc1 [Compound 7c]
> 40,> 40,> 40,> 40,> 10,28.7 ± 6.3,O=C(/C=C/c1ccc(O)cc1)CCCCc1ccccc1 [Compound 4b]
> 40,7.1 ± 0.2,15.4 ± 1.8,11.9 ± 0.2,3.6 ± 1,78.7 ± 6.2,O=C(/C=C/c1cc(O)c(O)c(O)c1)CCCCc1ccccc1 [Compound 4j]
> 40,12.6 ± 2.3,17.3 ± 0.1,37.5 ± 1.6,3.1 ± 0.3,74 ± 9.5,O=C(/C=C/c1ccc(O)c(O)c1)CCCc1ccccc1 [Compound 7d]
> 40,> 40,> 40,> 40,> 10,1 ± 3,O=C(CCCCc1ccccc1)CCc1ccc(O)c(Br)c1 [Compound 5h]
> 40,36.1 ± 3.7,> 40,> 40,> 10,49 ± 2.9,O=C(/C=C/c1ccc(O)c([N+](=O)[O-])c1)CCCCc1ccccc1 [Compound 4i]
> 40,> 40,> 40,> 40,> 10,27.8 ± 7.1,O=C(/C=C/c1ccc(O)c(Cl)c1)CCCCc1ccccc1 [Compound 4g]
> 40,13.7 ± 0.8,29.2 ± 1.7,37.2 ± 1.2,2.1 ± 0.2,79.4 ± 2.6,O=C(/C=C/c1ccc(O)c(O)c1)Cc1ccccc1 [Compound 7b]
> 40,> 40,> 40,> 40,> 10,22.1 ± 11.1,O=C(CCCCc1ccccc1)CCc1ccc(O)c(F)c1 [Compound 5f]
> 40,> 40,> 40,> 40,> 10,4.6 ± 11.7,COc1cc(CCC(=O)CCCCc2ccccc2)ccc1O [Compound 5i]
> 40,> 40,> 40,> 40,> 10,11.9 ± 1,O=C(/C=C/c1ccccc1)CCCCc1ccccc1 [Compound 4a]
> 40,> 40,> 40,> 40,> 10,-22.1 ± 2,O=C(CCCCc1ccccc1)CCc1cccc(O)c1 [Compound 5d]
> 40,> 40,> 40,> 40,> 10,28.1 ± 2.1,O=C(/C=C/c1ccc(O)c(Br)c1)CCCCc1ccccc1 [Compound 4h]
> 40,15.9 ± 1.5,17.6 ± 0.3,18.3 ± 0.9,6.1 ± 1.3,76.2 ± 2.7,O=C(/C=C/c1ccc(O)c(O)c1)CCCCc1ccccc1 [Compound 4c]
